From publication PMC8398451, “Molecular Engineering of Curcumin, an Active Constituent of Curcuma longa L. (Turmeric) of the Family Zingiberaceae with Improved Antiproliferative Activity” (Plants, 2021)
Like-named read-outs stand apart in the source and are kept apart here.

Legend:
CCRF-CEM = assay: NCI antiproliferative SRB assay, Leukemia panel; type: cell-based, Human
HL-60(TB) = assay: cells; type: cell-based
MOLT-4 = assay: NCI antiproliferative SRB assay, Leukemia panel; type: cell-based, Human
RPMI-8226 = assay: NCI antiproliferative SRB assay, Leukemia panel; type: cell-based, Human
SR = assay: NCI antiproliferative SRB assay, Leukemia panel; type: cell-based, Human; conditions: 5-dose 0.01-100 µM
A549/ATCC = assay: NCI antiproliferative SRB assay, Non-Small Cell Lung Cancer panel; type: cell-based, Human
NCI-H322M = assay: as above; type: cell-based, Human
NCI-H460 = assay: as above; type: cell-based, Human
HCC-2998 = assay: NCI antiproliferative SRB assay, Colon Cancer panel; type: cell-based, Human
HCT-116 = assay: as above; type: cell-based, Human
KM12 = assay: as above; type: cell-based, Human
SF-268 = assay: NCI antiproliferative SRB assay, CNS Cancer panel; type: cell-based, Human
SNB-19 = assay: NCI antiproliferative SRB assay, CNS Cancer panel; type: cell-based, Human
SNB-75 = assay: NCI antiproliferative SRB assay, CNS Cancer panel; type: cell-based, Human
LOX IMVI = assay: NCI antiproliferative SRB assay, Melanoma panel; type: cell-based, Human
M14 = assay: NCI antiproliferative SRB assay, Melanoma panel; type: cell-based, Human
SK-MEL-2 = assay: NCI antiproliferative SRB assay, Melanoma panel; type: cell-based, Human
UACC-257 = assay: NCI antiproliferative SRB assay, Melanoma panel; type: cell-based, Human
UACC-62 = assay: NCI antiproliferative SRB assay, Melanoma panel; type: cell-based, Human
OVCAR-5 = assay: NCI antiproliferative SRB assay, Ovarian Cancer panel; type: cell-based, Human
OVCAR-8 = assay: as above; type: cell-based, Human
ACHN = assay: NCI antiproliferative SRB assay, Renal Cancer panel; type: cell-based, Human
RXF 393 = assay: as above; type: cell-based, Human
TK-10 = assay: as above; type: cell-based, Human
UO-31 = assay: as above; type: cell-based, Human
BT-549 = assay: NCI antiproliferative SRB assay, Breast Cancer panel; type: cell-based, Human
Leukemia cell line panel = assay: NCI antiproliferative assay, panel summary; type: cell-based, Human; conditions: for GI50: Homo sapiens
[1] = system: CNS Cancer cell line panel; assay: NCI antiproliferative assay, panel summary; type: cell-based, Human
Melanoma cell line panel = assay: NCI antiproliferative assay, panel summary; type: cell-based, Human
[2] = system: Ovarian Cancer cell line panel; assay: NCI antiproliferative assay, panel summary; type: cell-based, Human
[3] = system: Prostate Cancer cell line panel; assay: NCI antiproliferative assay, panel summary; type: cell-based, Human
[4] = Homo sapiens, 5-dose 0.01-100 µM
[5] = Homo sapiens, 5-dose 0.01-100 µM, read-out: LC50 (the source's name)
[6] = Homo sapiens, 5-dose assay, read-out: Sub Panel MID b (mean GI50 of panel)

SMILES: COc1ccc(NC(=O)n2nc(/C=C/c3ccc(O)c(OC)c3)cc2/C=C/c2ccc(O)c(OC)c2)cc1 [3b]
- TGI (CCRF-CEM; 5-dose 0.01-100 µM): 32.7 µM
- GI50 (CCRF-CEM; [4]): 2.34 µM
- CC50 (CCRF-CEM; [5]): > 100 µM
- %GI (CCRF-CEM; one dose 10 µM): 88.23%
- GP (growth percent) (CCRF-CEM; one dose 10 µM): 11.77
- TGI (HL-60(TB); 5-dose 0.01-100 µM): 6.69 µM
- GI50 (HL-60(TB); [4]): 2.55 µM
- CC50 (HL-60(TB); [5]): > 100 µM
- %GI (HL-60(TB); one dose 10 µM): 94.68%
- GP (growth percent) (HL-60(TB); one dose 10 µM): 5.32
- TGI (MOLT-4; 5-dose 0.01-100 µM): 13.3 µM
- GI50 (MOLT-4; [4]): 2.87 µM
- CC50 (MOLT-4; [5]): > 100 µM
- %GI (MOLT-4; one dose 10 µM): 87.76%
- GP (growth percent) (MOLT-4; one dose 10 µM): 12.24
- TGI (RPMI-8226; 5-dose 0.01-100 µM): 29.2 µM
- GI50 (RPMI-8226; [4]): 3.38 µM
- CC50 (RPMI-8226; [5]): > 100 µM
- %GI (RPMI-8226; one dose 10 µM): 78.70%
- GP (growth percent) (RPMI-8226; one dose 10 µM): 21.30
- TGI (SR): 12.8 µM
- GI50 (SR; Homo sapiens): 1.52 µM
- CC50 (SR; Homo sapiens, read-out: LC50 (the source's name)): > 100 µM
- TGI (A549/ATCC; 5-dose 0.01-100 µM): 97.9 µM
- GI50 (A549/ATCC; [4]): 5.5 µM
- LC50 (50% lethal concentration) (A549/ATCC; [4]): > 100 µM
- %GI (A549/ATCC; one dose 10 µM): 72.71%
- GP (growth percent) (A549/ATCC; one dose 10 µM): 27.29
- TGI (NCI-H322M; 5-dose 0.01-100 µM): 72.5 µM
- GI50 (NCI-H322M; [4]): 3.87 µM
- CC50 (NCI-H322M; [5]): > 100 µM
- %GI (NCI-H322M; one dose 10 µM): 41.86%
- GP (growth percent) (NCI-H322M; one dose 10 µM): 58.14
- TGI (NCI-H460; 5-dose 0.01-100 µM): 31.4 µM
- GI50 (NCI-H460; [4]): 4.24 µM
- CC50 (NCI-H460; [5]): > 100 µM
- %GI (NCI-H460; one dose 10 µM): 85.78%
- GP (growth percent) (NCI-H460; one dose 10 µM): 14.22
- TGI (HCC-2998; 5-dose 0.01-100 µM): >100 µM
- GI50 (HCC-2998; [4]): 5.78 µM
- CC50 (HCC-2998; [5]): > 100 µM
- %GI (HCC-2998; one dose 10 µM): 25.09%
- GP (growth percent) (HCC-2998; one dose 10 µM): 74.91
- TGI (HCT-116; 5-dose 0.01-100 µM): 42.9 µM
- GI50 (HCT-116; [4]): 3.22 µM
- CC50 (HCT-116; [5]): > 100 µM
- %GI (HCT-116; one dose 10 µM): 90.87%
- GP (growth percent) (HCT-116; one dose 10 µM): 9.13
- TGI (KM12; 5-dose 0.01-100 µM): 20.7 µM
- GI50 (KM12; [4]): 3.19 µM
- CC50 (KM12; [5]): > 100 µM
- %GI (KM12; one dose 10 µM): 82.11%
- GP (growth percent) (KM12; one dose 10 µM): 17.89
- TGI (SF-268; 5-dose 0.01-100 µM): 36.4 µM
- GI50 (SF-268; [4]): 3.21 µM
- CC50 (SF-268; [5]): > 100 µM
- %GI (SF-268; one dose 10 µM): 58.19%
- GP (growth percent) (SF-268; one dose 10 µM): 41.81
- TGI (SNB-19; 5-dose 0.01-100 µM): 86.7 µM
- GI50 (SNB-19; [4]): 5.28 µM
- CC50 (SNB-19; [5]): > 100 µM
- %GI (SNB-19; one dose 10 µM): 61.15%
- GP (growth percent) (SNB-19; one dose 10 µM): 38.85
- TGI (SNB-75; 5-dose 0.01-100 µM): 16.3 µM
- GI50 (SNB-75; [4]): 2.35 µM
- CC50 (SNB-75; [5]): > 100 µM
- %GI (SNB-75; one dose 10 µM): 67.39%
- GP (growth percent) (SNB-75; one dose 10 µM): 32.61
- TGI (LOX IMVI; 5-dose 0.01-100 µM): >100 µM
- GI50 (LOX IMVI; [4]): 3.95 µM
- CC50 (LOX IMVI; [5]): > 100 µM
- %GI (LOX IMVI; one dose 10 µM): 72.41%
- GP (growth percent) (LOX IMVI; one dose 10 µM): 27.59
- TGI (M14; 5-dose 0.01-100 µM): 41.5 µM
- GI50 (M14; [4]): 3.15 µM
- CC50 (M14; [5]): > 100 µM
- %GI (M14; one dose 10 µM): 95.03%
- GP (growth percent) (M14; one dose 10 µM): 4.97
- TGI (SK-MEL-2; 5-dose 0.01-100 µM): 18.1 µM
- GI50 (SK-MEL-2; [4]): 3.23 µM
- CC50 (SK-MEL-2; [5]): > 100 µM
- %GI (SK-MEL-2; one dose 10 µM): 78.62%
- GP (growth percent) (SK-MEL-2; one dose 10 µM): 21.38
- TGI (UACC-257; 5-dose 0.01-100 µM): 64.8 µM
- GI50 (UACC-257; [4]): 16.7 µM
- CC50 (UACC-257; [5]): > 100 µM
- %GI (UACC-257; one dose 10 µM): 24.78%
- GP (growth percent) (UACC-257; one dose 10 µM): 75.22
- TGI (UACC-62; 5-dose 0.01-100 µM): 6.91 µM
- GI50 (UACC-62; [4]): 2.14 µM
- CC50 (UACC-62; [5]): > 100 µM
- %GI (UACC-62; one dose 10 µM): 74.53%
- GP (growth percent) (UACC-62; one dose 10 µM): 25.47
- TGI (OVCAR-5; 5-dose 0.01-100 µM): 54.1 µM
- GI50 (OVCAR-5; [4]): 18.8 µM
- CC50 (OVCAR-5; [5]): > 100 µM
- %GI (OVCAR-5; one dose 10 µM): 37.70%
- GP (growth percent) (OVCAR-5; one dose 10 µM): 62.30
- TGI (OVCAR-8; 5-dose 0.01-100 µM): 59.9 µM
- GI50 (OVCAR-8; [4]): 5.32 µM
- CC50 (OVCAR-8; [5]): > 100 µM
- %GI (OVCAR-8; one dose 10 µM): 67.21%
- GP (growth percent) (OVCAR-8; one dose 10 µM): 32.79
- TGI (ACHN; 5-dose 0.01-100 µM): >100 µM
- GI50 (ACHN; [4]): 4.18 µM
- CC50 (ACHN; [5]): > 100 µM
- %GI (ACHN; one dose 10 µM): 77.93%
- GP (growth percent) (ACHN; one dose 10 µM): 26.03
- TGI (RXF 393; 5-dose 0.01-100 µM): 8.87 µM
- GI50 (RXF 393; [4]): 3.02 µM
- CC50 (RXF 393; [5]): > 100 µM
- %GI (RXF 393; one dose 10 µM): 76.99%
- GP (growth percent) (RXF 393; one dose 10 µM): 23.01
- TGI (TK-10; 5-dose 0.01-100 µM): 95.3 µM
- GI50 (TK-10; [4]): 10.2 µM
- CC50 (TK-10; [5]): > 100 µM
- %GI (TK-10; one dose 10 µM): 36.16%
- GP (growth percent) (TK-10; one dose 10 µM): 63.84
- TGI (UO-31; 5-dose 0.01-100 µM): 36.4 µM
- GI50 (UO-31; [4]): 1.52 µM
- LC50 (50% lethal concentration) (UO-31; [4]): > 100 µM
- %GI (UO-31; one dose 10 µM): 77.33%
- GP (growth percent) (UO-31; one dose 10 µM): 22.67
- TGI (BT-549; 5-dose 0.01-100 µM): 29.5 µM
- GI50 (BT-549; [4]): 2.49 µM
- CC50 (BT-549; [5]): > 100 µM
- %GI (BT-549; one dose 10 µM): 68.63%
- GP (growth percent) (BT-549; one dose 10 µM): 31.37
- Mean % GI (Leukemia cell line panel; 10 µM): 88.02%
- Selectivity Ratio (MID a:MID b) (Leukemia cell line panel; 5-dose assay): 1.89
- GI50 (Leukemia cell line panel; 5-dose assay, read-out: GI50 values, range over the leukemia panel): 1.52 to 3.38 µM
- GI50 (Leukemia cell line panel; 5-dose assay, read-out: Sub Panel MID b (mean GI50 of panel)): 2.59 µM
- Mean % GI ([1]; 10 µM): 67.06%
- Selectivity Ratio (MID a:MID b) ([1]; 5-dose assay): 1.28
- GI50 [1, 6]: 3.83 µM
- Mean % GI (Melanoma cell line panel; 10 µM): 76.24%
- Selectivity Ratio (MID a:MID b) (Melanoma cell line panel; 5-dose assay): 1.06
- GI50 (Melanoma cell line panel; [6]): 4.59 µM
- Mean % GI ([2]; 10 µM): 60.11%
- Selectivity Ratio (MID a:MID b) ([2]; 5-dose assay): 0.76
- GI50 [2, 6]: 6.46 µM
- Mean % GI ([3]; 10 µM): 72.17%
- Selectivity Ratio (MID a:MID b) ([3]; 5-dose assay): 1.07
- GI50 [3, 6]: 4.55 µM
